Source: patent publication US20090111847A1, “PREPARATION METHOD AND USE OF COMPOUNDS HAVING HIGH INSECTICIDAL ACTIVITIES” (priority 2006, published 2009)

Columns and labels:
[1] = test system: Nilaparvata lugens; test: Insecticidal activity against Nilaparvata lugens by spraying (mortality after 24 hours); assay type: in vivo; details: for Mortality (%) (500 ppm) Nilaparvata lugens: spraying 2 ml, counted after 24 hours; for mortality at 500 ppm: Nilaparvata lugens, 24 h, read-out: Mortality (%) (500 ppm) Nilaparvata lugens
Method: Plant hopper, which belongs to Homoptera and has a piercing-sucking mouthpart, is a common insect for agricultural plant. Nilaparvata lugens was tested by the way of spraying.
Test method: the compound to be tested was exactly formulated into a solution having a certain concentration and clean water was used as a blank control. Each process was repeated for 3 tumblers (3 times). 2 ml of solution was sprayed uniformly to each tumbler by a mini manual sprayer. 10 Nilaparvata lugens were introduced to every sink 6 hours before spraying. Three series of experiments were conducted. The number of killed Nilaparvata lugens was counted after 24 hours to calculate the mortality.

[2] = test system: Aphis craccivora; test: Insecticidal activity against Aphis craccivora by immersing (mortality after 24 hours); assay type: in vivo; details: for Mortality (%) (500 ppm) Aphis craccivora / Aphis craccivora LC50 (ppm) / Aphis craccivora Mortality (%) (100 ppm): in vivo; for mortality at 500 ppm: Aphis craccivora, 24 h, read-out: Mortality (%) (500 ppm) Aphis craccivora
Method: Aphis, which belongs to Homoptera and has a piercing-sucking mouthpart, is a common insect for agricultural plant. Aphis craccivora was tested by the way of immersing.
Test method: exactly weighed various samples were independently added to N,N-dimethylformamide to form a 10 g/L stock solution. The mixture was diluted with 0.2 mL/L aqueous Triton X-100 solution to a concentration of 500 ug/mL. After stably sucking on bean sprout, the adult aphis without wings together with bean sprout was dipped into the dilution of 500 ug/mL, 100 ug/mL, 50 ug/mL, 25 ug/mL, 12.5 ug/mL, 6.25 ug/mL (LD50 was calculated), taken out after 5 seconds, and the excess dilution was sucked out with bibulous paper and the adult aphis without wings was incubated in clean vessel at a constant temperature of 23° C. Each concentration was repeated for 3 times and the control group contained 0.2 mL/L aqueous Triton X-100 solution. The number of killed aphis was counted after 24 hours to calculate the mortality.

Structure (SMILES) | Aphis craccivora LC50 (ppm) [2] [ppm] | Aphis craccivora Mortality (%) (100 ppm) [2] | also measured
CCC1CC([N+](=O)[O-])=C2N(Cc3ccc(Cl)nc3)CCN2C1OC (stereo not shown) [Compound 27] |  |  | Mortality (%) (500 ppm) Nilaparvata lugens [1]: 80%; Mortality (%) (500 ppm) Aphis craccivora [2]: 92%
CCC1CC([N+](=O)[O-])=C2N(Cc3ccc(Cl)nc3)CCN2C1O (stereo not shown) [j] | 57.3 | 93.6 | 
CC1CC(O)N2CCN(Cc3ccc(Cl)nc3)C2=C1[N+](=O)[O-] (stereo not shown) [a] | 31.5 | 95.3 | 
CCCCC1CC(O)N2CCN(Cc3ccc(Cl)nc3)C2=C1[N+](=O)[O-] (stereo not shown) [Compound 41] |  |  | Mortality (%) (500 ppm) Nilaparvata lugens [1]: 50%; Mortality (%) (500 ppm) Aphis craccivora [2]: 72%
CC1C([N+](=O)[O-])=C2N(Cc3ccc(Cl)nc3)CCN2C(O)C1C (stereo not shown) [l] | 86.4 | 66.7 | 
CC1CC(OCC(F)(F)F)N2CCN(Cc3ccc(Cl)nc3)C2=C1[N+](=O)[O-] (stereo not shown) [Compound 4] |  |  | Mortality (%) (500 ppm) Nilaparvata lugens [1]: 100%; Mortality (%) (500 ppm) Aphis craccivora [2]: 100%
CCCC1CC(O)N2CCN(Cc3ccc(Cl)nc3)C2=C1[N+](=O)[O-] (stereo not shown) [Compound 24] |  |  | Mortality (%) (500 ppm) Nilaparvata lugens [1]: 89%; Mortality (%) (500 ppm) Aphis craccivora [2]: 97%
CC1CC(O)N2CCN(Cc3cnc(Cl)s3)C2=C1[N+](=O)[O-] (stereo not shown) [f] | 68 | 87 | 
CC1C([N+](=O)[O-])=C2N(Cc3ccc(Cl)nc3)CCN2C(O)C1C (stereo not shown) [Compound 30, 1-((6-chloropyridin-3-yl)methyl)-6,7-dimethyl-8-nitro-1,2,3,5,6,7-hexahydroimidazo[1,2-a]pyridin-5-ol] |  |  | mortality at 500 ppm [1]: 100%; mortality at 500 ppm [2]: 100%
C#CCOC1CC(C)C([N+](=O)[O-])=C2N(Cc3ccc(Cl)nc3)CCN21 (stereo not shown) [Compound 10] |  |  | Mortality (%) (500 ppm) Nilaparvata lugens [1]: 67%; Mortality (%) (500 ppm) Aphis craccivora [2]: 43%
CCOC1CC(O)N2CCN(Cc3ccc(Cl)nc3)C2=C1[N+](=O)[O-] (stereo not shown) [o] | 66.4 | 82 | 
COC1CC(O)N2CCN(Cc3ccc(Cl)nc3)C2=C1[N+](=O)[O-] (stereo not shown) [Compound 42, 1-((6-chloropyridin-3-yl)methyl)-7-methoxy-8-nitro-1,2,3,5,6,7-hexahydroimidazo[1,2-a]pyridin-5-ol] |  |  | mortality at 500 ppm [1]: 97%; mortality at 500 ppm [2]: 100%
CCCOC1CC(C)C([N+](=O)[O-])=C2N(Cc3ccc(Cl)nc3)CCN21 (stereo not shown) [d] | 33.6 | 75.4 | 
COC1CC([N+](=O)[O-])=C2N(Cc3ccc(Cl)nc3)CCN2C1O (stereo not shown) [p] | 47.6 | 93 | 
CCOC1CC([N+](=O)[O-])=C2N(Cc3ccc(Cl)nc3)CCN2C1O (stereo not shown) [q] | 70.9 | 85 | 
CC1CC([N+](=O)[O-])=C2N(Cc3ccc(Cl)nc3)CCN2C1O (stereo not shown) [g] | 36.3 | 92 | 
CC(C)OC1CC(C)C([N+](=O)[O-])=C2N(Cc3ccc(Cl)nc3)CCN21 (stereo not shown) [e] | 20.5 | 100 | 
CCOC1CC(C)C([N+](=O)[O-])=C2N(Cc3ccc(Cl)nc3)CCN21 (stereo not shown) [c] | 65.4 | 67 | 
CCC1CC([N+](=O)[O-])=C2N(Cc3ccc(Cl)nc3)CCN2C1OC (stereo not shown) [k] | 83.0 | 92 | 
COC1CC(C)C([N+](=O)[O-])=C2N(Cc3ccc(Cl)nc3)CCN21 (stereo not shown) [b] | 50.8 | 84 | 
COC1CC(O)N2CCN(Cc3ccc(Cl)nc3)C2=C1[N+](=O)[O-] (stereo not shown) [n] | 40.5 | 96 | 
CCCC1CC(O)N2CCN(Cc3ccc(Cl)nc3)C2=C1[N+](=O)[O-] (stereo not shown) [i] | 75.2 | 77 | 
CCC1C([N+](=O)[O-])=C2N(Cc3ccc(Cl)nc3)CCN2C(O)C1C (stereo not shown) [m] | 75.9 | 87 | 
